Assay: Contact of acid solution with human skin
Settings: solution with a pH of less than 0.5

O=S(=O)(O)O [sulfuric acid]
irritation of hand put into solution: an irritation would occur
